Data: patent US20260258003A1, “SLACK-ACTIVATING COMPOUNDS AND THEIR MEDICAL USE” (Johann Wolfgang Goethe-Universität Frankfurt am Main, priority 2023, published 2026)
Read-outs that look alike come from different tables or passages of the source.

Key:
human Slack = target: T1, human Slack (Homo sapiens, UniProt Q5JUK3); experiment: FluxOR potassium ion channel assay in HEK-Slack cells; type: cell-based; settings: Na+ free buffer with 2 mM Ca2+, 2 mM Mg2+, 0.03% DMSO; for Emax: read-out: FluxOR assay EMAX (% relative to Loxapine)
T1 construct: host or cells: HEK293
T1 sequence (Q5JUK3 1-1230): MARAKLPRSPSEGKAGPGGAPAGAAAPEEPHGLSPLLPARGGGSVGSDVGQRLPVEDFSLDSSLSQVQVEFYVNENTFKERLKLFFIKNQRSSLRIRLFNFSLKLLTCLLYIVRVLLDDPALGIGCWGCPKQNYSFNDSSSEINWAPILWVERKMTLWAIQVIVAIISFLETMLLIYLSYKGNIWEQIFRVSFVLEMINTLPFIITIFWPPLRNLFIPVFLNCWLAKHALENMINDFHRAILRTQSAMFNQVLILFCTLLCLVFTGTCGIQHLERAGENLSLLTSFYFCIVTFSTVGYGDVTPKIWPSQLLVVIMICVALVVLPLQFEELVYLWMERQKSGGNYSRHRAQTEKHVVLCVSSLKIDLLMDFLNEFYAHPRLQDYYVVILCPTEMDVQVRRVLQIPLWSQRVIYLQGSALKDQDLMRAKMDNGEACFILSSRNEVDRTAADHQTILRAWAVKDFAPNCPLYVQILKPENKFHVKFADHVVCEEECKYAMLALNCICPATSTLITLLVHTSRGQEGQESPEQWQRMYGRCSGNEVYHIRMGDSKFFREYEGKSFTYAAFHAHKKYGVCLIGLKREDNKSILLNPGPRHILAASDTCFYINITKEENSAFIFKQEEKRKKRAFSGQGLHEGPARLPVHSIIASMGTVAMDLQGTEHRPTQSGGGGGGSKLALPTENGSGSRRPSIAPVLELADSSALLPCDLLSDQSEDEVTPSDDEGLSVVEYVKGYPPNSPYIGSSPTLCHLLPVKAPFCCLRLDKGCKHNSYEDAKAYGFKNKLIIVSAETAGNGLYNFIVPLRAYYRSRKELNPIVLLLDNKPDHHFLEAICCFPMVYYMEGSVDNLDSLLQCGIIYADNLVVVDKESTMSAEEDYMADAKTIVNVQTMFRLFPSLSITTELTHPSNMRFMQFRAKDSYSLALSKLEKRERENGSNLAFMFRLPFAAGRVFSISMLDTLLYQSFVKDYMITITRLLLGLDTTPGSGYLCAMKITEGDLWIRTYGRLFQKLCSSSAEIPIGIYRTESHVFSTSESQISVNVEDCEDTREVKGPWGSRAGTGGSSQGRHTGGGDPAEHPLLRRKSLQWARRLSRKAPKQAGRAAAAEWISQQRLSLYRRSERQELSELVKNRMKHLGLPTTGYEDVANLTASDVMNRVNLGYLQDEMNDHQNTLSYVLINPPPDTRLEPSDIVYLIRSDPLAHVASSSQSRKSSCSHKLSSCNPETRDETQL
Procedure: For that purpose, cultured HEK293 cells stably expressing human Slack (herein referred to as HEK-Slack cells) were incubated with compounds in a Na^+ free buffer to prevent compound-independent Slack activation by monovalent cations^7,19.
In detail, in these experiments, the Slack-activating efficacy and potency of the novel compounds was determined using a commercial FluxOR™ Potassium Ion Channel Assay (Invitrogen). HEK293 cells stably expressing human Slack (herein referred to as HEK-Slack cells) were plated at a density of 50,000 cells per well of a poly-D-lysine coated (75 μg/mL, Sigma Aldrich) 96-well, black-walled microplate with clear bottom (Greiner Bio-One) in DMEM containing 10% FBS and 1% penicillin/streptomycin 24 hours prior to assaying.
On the experiment day, cells were loaded with FluxOR™ dye according to the manufacturer's protocol. A Na^+-free assay buffer containing 140 mM choline chloride, 5 mM KCl, 2 mM CaCl2), 2 mM MgSO4, 10 mM HEPES, 5.55 mM glucose, adjusted to pH 7.4 with KOH, was used. To reduce background fluorescence all assay components were complemented by 10% BackDrop™ Background Suppressor (Invitrogen). […]
After washing steps, cells were incubated with compounds for 30 min at 37° C. All compounds were prepared as a 33.3 mM DMSO stock and diluted at the experimental day to a final concentration of 100, 50, 25, 12.5, 6.25, and 3.125 μM in assay buffer containing […] DMSO. […] After stimulation with Tl2SO4 solution, the fluorescence was measured over 100 s (excitation 485 nm, emission 525 nm) using an Infinite M200 Microplate Reader (Tecan). Assays run in triplicate and the ratio to baseline fluorescence was calculated for all time points. Dose-response curves comprising six concentrations were performed in triplets using fluorescence/fluorescenceBaseline ratios at the 100th second.

[1] = BBB-specific parallel artificial membrane permeability assay (PAMPA-BBB); type: in vitro ADME, porcine; settings: pH 7.4, 37° C.; for MR (membrane retention factor): 4 h; for Papp at 4 h, 100 μM: pig, Pe in cm/s, read-out: BBB permeability log Pe (converted)
Procedure: BBB permeability was estimated using a BBB-specific parallel artificial membrane permeability assay (PAMPA-BBB). […] Five v/v % DMSO in PBS (Phosphate Buffer Saline; 0.01 M, pH=7.4) buffer solutions of each compound were prepared with the final nominal concentration of 100 μM. These solutions were treated with ultrasonic waves and then centrifuged in case the test compounds were insoluble at this concentration. Proceeding with saturated, homogenous solutions (CD(0)) is sufficient because log Pe only depends on relative concentrations. A BBB specific PAMPA system was used to determine the log Pe and membrane retention (MR). Each well of the top plate (MultiScreen […]10; Millipore; Billerica, US) was carefully coated with 5 μL of porcine polar brain lipid extract (PBLE; Avanti Polar Lipids, Birmingham, US) solution, then 150 μL of the CD(0) solution was put on the membrane. The bottom plate (MultiScreen MDCPN2M50; Millipore, Billerica, US) was filled with […] PBS. PBLE solution consisted of 1 mg PBLE per 10 μL n-dodecane and 30 μL n-hexane. The donor plate was put on the acceptor plate and covered with a wet paper tissue and a plate lid. The sandwich system was incubated at 37° C. for 4 h. The plates were shaken and incubated in a Thermo ScientificTM MaxQTM 4000 Benchtop Orbital Shaker (Gel, Belgium). After the incubation, PAMPA sandwich plates were separated and compound concentrations in donor (CD(t)) and acceptor (CA(t)) solutions were determined by UPLC-MS (Waters, Milford, US). The concentration of the donor solution at zero time point (CD(0)) was determined using the supernatant after centrifugation.

[2] = mean with 95% confidence interval, read-out: FluxOR assay EC50
[3] = mean with 95% confidence interval

With CN1CCN(C2=Nc3ccccc3Oc3ccc(C(F)(F)F)cc32)CC1 [Compound 2, 11-(4-Methylpiperazin-1-yl)-2-(trifluoromethyl)dibenzo[b,f][1,4]oxazepine] the EC50 (human Slack; [2]) was 6.3 µM, the Emax (human Slack; [3]) was 114% and the “MR (membrane retention factor)” value [1] was 0.64. The Papp at 4 h, 100 μM [1] was 26.3 ×10⁻⁶ cm/s.
With CN1CCCN(C2=Nc3ccccc3Oc3ccc(C(F)(F)F)cc32)CC1 [Compound 3, 11-(4-Methyl-1,4-diazepan-1-yl)-2-(trifluoromethyl)dibenzo[b,f][1,4]oxazepine] the EC50 (human Slack; [2]) was 3.2 µM, the Emax (human Slack; [3]) was 63.1% and the “MR (membrane retention factor)” value [1] was 0.5. For the same compound, the Papp at 4 h, 100 μM [1] was 38 ×10⁻⁶ cm/s.
With CN1CCN(C2=Nc3cc(F)ccc3Oc3ccc(C(F)(F)F)cc32)CC1 [Compound 4, 8-Fluoro-11-(4-methylpiperazin-1-yl)-2-(trifluoromethyl)dibenzo[b,f][1,4]oxazepine] the EC50 (human Slack; [2]) was 41.5 µM, the Emax (human Slack; [3]) was 199% and the “MR (membrane retention factor)” value [1] was 0.74. It also gave a Papp at 4 h, 100 μM [1] of 21.4 ×10⁻⁶ cm/s.
In the case of OCCN1CCN(C2=Nc3ccccc3Oc3ccc(Cl)cc32)CC1 [Compound 5, 2-(4-(2-Chlorodibenzo[b,f][1,4]oxazepin-11-yl)piperazin-1-yl) ethan-1-ol], the EC50 (human Slack; [2]) is reported as 26 µM, the Emax (human Slack; [3]) is reported as 223% and the “MR (membrane retention factor)” value [1] is reported as 0.03. For the same compound, the Papp at 4 h, 100 μM [1] was 39.8 ×10⁻⁶ cm/s.
Compound O=C(O)COCCN1CCN(C2=Nc3ccccc3Oc3ccc(Cl)cc32)CC1 [Compound 6, 2-(2-(4-(2-Chlorodibenzo[b,f][1,4]oxazepin-11-yl)piperazin-1-yl)ethoxy) acetic acid] has an EC50 (human Slack; [2]) of 30.3 µM, an Emax (human Slack; [3]) of 96.2% and a Papp at 4 h, 100 μM [1] of 24.5 ×10⁻⁶ cm/s.
With OCCOCCN1CCN(C2=Nc3ccccc3Sc3ccc(Cl)cc32)CC1 [Compound 7, 2-(2-(4-(2-Chlorodibenzo[b,f][1,4]thiazepin-11-yl)piperazin-1-yl)ethoxy) ethan-1-ol] the EC50 (human Slack; [2]) was 30 µM, the Emax (human Slack; [3]) was 87.4% and the “MR (membrane retention factor)” value [1] was 0.19. It also gave a Papp at 4 h, 100 μM [1] of 53.7 ×10⁻⁶ cm/s.
Work on O=C(O)COCCN1CCN(C2=Nc3ccccc3Oc3ccc(C(F)(F)F)cc32)CC1 [Compound 8, 2-(2-(4-(2-(Trifluoromethyl)dibenzo[b,f][1,4]oxazepin-11-yl)piperazin-1-yl)ethoxy) acetic acid] yielded an EC50 (human Slack; [2]) of 62.5 µM, an Emax (human Slack; [3]) of 177% and a Papp at 4 h, 100 μM [1] of 26.3 ×10⁻⁶ cm/s.
With O=C(O)COCCN1CCCN(C2=Nc3ccccc3Oc3ccc(C(F)(F)F)cc32)CC1 [Compound 9, 2-(2-(4-(2-(Trifluoromethyl)dibenzo[b,f][1,4]oxazepin-11-yl)-1,4-diazepan-1-yl)ethoxy) acetic acid] the EC50 (human Slack; [2]) was 50.9 µM, the Emax (human Slack; [3]) was 186% and the “MR (membrane retention factor)” value [1] was −0.10. The Papp at 4 h, 100 μM [1] was 35.5 ×10⁻⁶ cm/s.
With O=c1nc(CN2CCN(C3=Nc4ccccc4Oc4ccc(Cl)cc43)CC2)[nH][nH]1 [Compound 10, 5-((4-(2-Chlorodibenzo[b,f][1,4]oxazepin-11-yl)piperazin-1-yl)methyl)-1,2-dihydro-3H-1,2,4-triazol-3-one] the EC50 (human Slack; [2]) was 22.1 µM, the Emax (human Slack; [3]) was 120% and the “MR (membrane retention factor)” value [1] was 0.02.
CN1CCN(C2=Nc3ccccc3Oc3ccc(Cl)cc32)CC1 [Loxapine, 2-chloro-11-(4-methylpiperazin-1-yl)dibenzo[b,f][1,4]oxazepine, reference compound] showed an EC50 (human Slack; first preliminary experiments, read-out: EC50 value in the first preliminary experiments) of 23.4 µM, an EC50 (human Slack; [2]) of 20.7 µM and an Emax (human Slack; [3]) of 100%. For the same compound, the “MR (membrane retention factor)” value [1] was 0.33.
